“And” between values parts separate entries of the source, which are not always exact repeats. Equal values may be shown once. Read-outs that look alike come from different tables or passages of the source. Non-standard residues stand in square brackets, D forms with d. Residues, ends and D or L forms follow the SMILES beside them. *: point of attachment. NH(3,5-(CF3)2-benzyl) = FC(F)(F)c1cc(CN*)cc(C(F)(F)F)c1; NMePhe(4-F) = CN[C@@H](Cc1ccc(F)cc1)C(=O)O; NMeW = CN[C@@H](Cc1c[nH]c2ccccc12)C(=O)O; Dmt = Cc1cc(O)cc(C)c1C[C@H](N)C(=O)O; NMeF = CN[C@@H](Cc1ccccc1)C(=O)O
Key:
[1] = target: MOR; assay: Radioligand binding assay at μ opioid receptor; details: for Log[IC50±] (μ): log IC50 ± error; for Ki^μ/Ki^δ: ratio of binding affinities MOR/DOR
Description: (§1) Binding affinities of these ligands were measured on radioligand binding assays. […] ([43]).

[2] = target: DOR (Homo sapiens, UniProt P41143); assay: Radioligand binding assay at δ opioid receptor; details: for Ki: Ki^δ (nM)
Description: as §1

[3] = target: T1, hNK1 (Homo sapiens, UniProt P25103); assay: hNK1/CHO cell membrane radioligand binding assay ([3H]SP); details: for Ki: hNK1/CHO membranes, [3H]SP; for Ki^hNK1/Ki^rNK1: ratio human/rat NK1
T1 construct: expressed in transfected cells; host or cells: CHO

[4] = target: rNK1 (Rattus norvegicus, UniProt P14600); assay: Radioligand binding assay at rat NK1 receptor
Description: as §1

[5] = system: MOR; assay: Guinea pig isolated ileum (GPI) functional assay; type: cell-based
[6] = target: T2, DOR (Mus musculus, UniProt P32300); assay: Mouse isolated vas deferens (MVD) functional assay; type: cell-based; details: MVD (DOR) IC50 (nM), agonist activity, electrically stimulated tissue
T2 construct: Male ICR mice under CO2 anesthesia were sacrificed by cervical dislocation and the vasa differentia removed; from tissue; host or cells: mouse vas deferens (ICR mice)

[7] = target: T3, NK1R (Cavia porcellus, UniProt P30547); assay: GPI/LMMP functional assay at NK1R (agonist and antagonist testing); type: cell-based, guinea pig; details: for Kb: GPI/LMMP (NK1R) Ke (nM) ± S.E.M., antagonist activity; for GPI/LMMP (NK1R) Agonist: agonist activity at the concentration in the cell
T3 construct: The longitudinal muscle with myenteric plexus (LMMP) was carefully separated from the circular muscle; from tissue; host or cells: guinea pig ileum longitudinal muscle with myenteric plexus

[8] = agonist activity, electrically stimulated tissue, read-out: GPI (MOR) IC50
[9] = head of Table IX, read-out: GPI (MOR) ID50

T3 sequence (P30547 whole entry): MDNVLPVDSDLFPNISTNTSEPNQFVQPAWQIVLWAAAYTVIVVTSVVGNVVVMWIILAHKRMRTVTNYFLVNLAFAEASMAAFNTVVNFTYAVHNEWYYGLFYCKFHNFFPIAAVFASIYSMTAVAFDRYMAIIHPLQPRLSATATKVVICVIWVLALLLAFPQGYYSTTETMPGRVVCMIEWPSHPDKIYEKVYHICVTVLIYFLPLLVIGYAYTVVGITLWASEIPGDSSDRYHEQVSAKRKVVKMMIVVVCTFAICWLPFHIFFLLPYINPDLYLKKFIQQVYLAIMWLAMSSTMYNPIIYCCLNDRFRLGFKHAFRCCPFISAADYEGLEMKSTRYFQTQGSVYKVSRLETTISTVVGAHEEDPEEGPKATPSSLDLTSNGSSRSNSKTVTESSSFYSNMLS
rNK1, sequence (P14600 whole entry): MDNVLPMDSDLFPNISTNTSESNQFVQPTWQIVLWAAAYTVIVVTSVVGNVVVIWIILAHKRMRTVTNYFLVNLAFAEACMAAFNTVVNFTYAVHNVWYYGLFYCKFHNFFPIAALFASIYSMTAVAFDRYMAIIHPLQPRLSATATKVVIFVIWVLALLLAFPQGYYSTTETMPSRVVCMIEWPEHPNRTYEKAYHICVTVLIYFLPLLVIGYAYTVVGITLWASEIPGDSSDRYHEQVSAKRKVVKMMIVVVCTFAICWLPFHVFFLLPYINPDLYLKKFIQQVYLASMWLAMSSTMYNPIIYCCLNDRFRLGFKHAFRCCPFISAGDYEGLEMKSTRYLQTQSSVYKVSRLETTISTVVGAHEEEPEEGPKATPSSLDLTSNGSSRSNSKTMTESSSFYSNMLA
DOR (Homo sapiens, UniProt P41143), sequence (P41143 whole entry): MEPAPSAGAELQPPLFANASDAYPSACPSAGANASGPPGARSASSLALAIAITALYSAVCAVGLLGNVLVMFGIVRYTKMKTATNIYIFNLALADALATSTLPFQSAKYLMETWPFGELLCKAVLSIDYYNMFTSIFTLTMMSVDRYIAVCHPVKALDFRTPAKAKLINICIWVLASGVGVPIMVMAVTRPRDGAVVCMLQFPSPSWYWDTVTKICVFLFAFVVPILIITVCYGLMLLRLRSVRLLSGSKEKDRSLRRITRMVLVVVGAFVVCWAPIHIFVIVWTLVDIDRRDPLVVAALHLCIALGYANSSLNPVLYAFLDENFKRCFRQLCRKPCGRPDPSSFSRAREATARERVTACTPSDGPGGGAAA
T2 sequence (P32300 whole entry): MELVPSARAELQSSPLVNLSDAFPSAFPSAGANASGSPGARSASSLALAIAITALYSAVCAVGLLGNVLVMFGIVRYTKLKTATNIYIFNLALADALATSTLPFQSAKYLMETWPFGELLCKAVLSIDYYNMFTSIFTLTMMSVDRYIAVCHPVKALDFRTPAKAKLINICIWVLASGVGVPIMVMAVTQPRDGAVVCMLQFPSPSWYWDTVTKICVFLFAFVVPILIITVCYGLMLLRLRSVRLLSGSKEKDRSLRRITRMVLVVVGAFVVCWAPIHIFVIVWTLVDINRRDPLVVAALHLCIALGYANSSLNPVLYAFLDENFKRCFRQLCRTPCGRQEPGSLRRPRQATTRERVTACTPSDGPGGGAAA
T1 sequence (P25103 whole entry): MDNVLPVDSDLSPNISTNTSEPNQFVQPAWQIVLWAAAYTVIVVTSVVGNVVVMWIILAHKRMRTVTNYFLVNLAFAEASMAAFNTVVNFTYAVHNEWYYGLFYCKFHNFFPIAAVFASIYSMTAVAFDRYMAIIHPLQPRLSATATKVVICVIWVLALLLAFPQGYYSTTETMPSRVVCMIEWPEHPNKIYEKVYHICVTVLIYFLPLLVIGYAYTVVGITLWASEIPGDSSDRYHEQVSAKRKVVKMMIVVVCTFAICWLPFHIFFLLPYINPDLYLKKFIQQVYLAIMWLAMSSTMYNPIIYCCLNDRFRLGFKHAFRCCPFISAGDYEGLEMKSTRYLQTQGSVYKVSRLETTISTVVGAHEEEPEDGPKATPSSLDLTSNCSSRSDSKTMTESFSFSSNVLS

Row | Compound | Log[IC50±] (μ) [1] | Ki^μ/Ki^δ [1] | IC50 [2] [nM] | Ki [2] [nM] | Ki ([3]; Ki^hNK1 (nM)) | Ki^hNK1/Ki^rNK1 [3] | Ki ([4]; Ki^rNK1 (nM)) | GPI/MVD IC50 ratio [5] | IC50 [5, 8] | IC50 [6] | Kb [7] [nM] | GPI/LMMP (NK1R) Agonist [7] | Ki [1] [nM] | IC50 [5, 9] [nM] | Ki ([3]; read-out: Ki^hNK1) [nM] | Ki ([4]; read-out: Ki^rNK1) [nM]
1 | CC(C)C[C@H](NC(=O)[C@@H]1CCCN1C(=O)CNC(=O)[C@H](Cc1ccc(F)cc1)N(C)C(=O)CNC(=O)[C@@H](C)NC(=O)[C@@H](N)Cc1ccc(O)cc1)C(=O)N[C@@H](Cc1c[nH]c2ccccc12)C(=O)NCc1cc(C(F)(F)F)cc(C(F)(F)F)c1 [AKG131, H-Tyr-D-Ala-Gly-NMePhe(4-F)-Gly-Pro-Leu-Trp-NH-Bn(3′,5′-(CF3)2)] (H-Y[dA]G[NMePhe(4-F)]GPLW-{NH(3,5-(CF3)2-benzyl)}) | −6.40 ± 0.32 | 11/1 | 38 | 17 | 2 nM | 1/8 | 89 nM | 2/1 | 63 nM and 62.5 nM | 30 nM and 29.7 nM | 35.8 ± 10.8 | None at 100 nM |  |  |  | 
2 | CSCC[C@H](NC(=O)[C@H](Cc1ccccc1)NC(=O)CNC(=O)[C@@H](C)NC(=O)[C@@H](N)Cc1ccc(O)cc1)C(=O)N1CCC[C@H]1C(=O)N[C@@H](CC(C)C)C(=O)N[C@@H](Cc1c[nH]c2ccccc12)C(=O)NCc1cc(C(F)(F)F)cc(C(F)(F)F)c1 [TY027, H-Tyr-D-Ala-Gly-Phe-Met-Pro-Leu-Trp-NH-Bn(3′,5′-(CF3)2), reference compound] |  |  |  |  | 1.5 nM and 2 nM |  | 10 nM and 14 nM |  |  |  |  |  |  |  |  | 
3 | Cc1cc(O)cc(C)c1C[C@H](N)C(=O)N[C@H](C)C(=O)N(C)CC(=O)N(C)[C@@H](Cc1ccccc1)C(=O)N1CCC[C@H]1C(=O)N[C@@H](CC(C)C)C(=O)N[C@@H](Cc1c[nH]c2ccccc12)C(=O)NCc1cc(C(F)(F)F)cc(C(F)(F)F)c1 [AKG182, H-Dmt-D-Ala-NMeGly-NMePhe-Pro-Leu-Trp-NH-Bn(3′,5′-(CF3)2)] |  |  |  |  |  | 1/22 | 110 ± 18.3 nM |  |  |  |  |  |  |  |  | 
4 | CC(C)C[C@H](NC(=O)[C@@H]1CCCN1C(=O)[C@H](Cc1ccccc1)N(C)C(=O)[C@H](Cc1c[nH]c2ccccc12)N(C)C(=O)[C@@H]1CCCN1C(=O)[C@@H](N)Cc1ccc(O)cc1)C(=O)N[C@@H](Cc1c[nH]c2ccccc12)C(=O)NCc1cc(C(F)(F)F)cc(C(F)(F)F)c1 [AKG225, H-Tyr-Pro-NMeTrp-NMePhe-Pro-Leu-Trp-NH-Bn(3′,5′-(CF3)2)] (H-YP[NMeW][NMeF]PLW-{NH(3,5-(CF3)2-benzyl)}) |  |  |  |  | 14.8 ± 1.4 nM | 1/20 | 302 ± 78.5 nM |  |  |  |  |  |  |  |  | 
5 | Cc1cc(O)cc(C)c1C[C@H](N)C(=O)N[C@H](C)C(=O)NCC(=O)N(C)[C@@H](Cc1ccccc1)C(=O)N[C@@H](CO)C(=O)N1CCC[C@H]1C(=O)N[C@@H](CC(C)C)C(=O)N[C@@H](Cc1c[nH]c2ccccc12)C(=O)NCc1cc(C(F)(F)F)cc(C(F)(F)F)c1 [AKG132] (H-[Dmt][dA]G[NMeF]SPLW-{NH(3,5-(CF3)2-benzyl)}) | −9.03 ± 0.06 | 1/5 | 5.25 | 2 | 5.6 nM and 5.61 nM | 1/6 | 36 nM |  | 43 nM | 7.66 ± 2.03 nM | 19.8 ± 2.9 | None at 30 nM | 0.4 | 42.6 ± 6 |  | 
6 | CC(C)C[C@H](NC(=O)[C@@H]1CCCN1C(=O)[C@@H](CO)NC(=O)[C@H](Cc1ccccc1)NC(=O)CNC(=O)[C@@H](C)NC(=O)[C@@H](N)Cc1ccc(O)cc1)C(=O)N[C@@H](Cc1c[nH]c2ccccc12)C(=O)NCc1cc(C(F)(F)F)cc(C(F)(F)F)c1 [AKG101] | −6.35 ± 0.26 | 6/1 | 74.1 |  | 3 nM | 1/39 | 110 nM |  |  | 6.7 nM and 6.72 nM | 28 ± 11.8 | None at 100 nM | 200 |  |  | 
7 | CC(C)C[C@H](NC(=O)[C@@H]1CCCN1C(=O)CNC(=O)[C@H](CCC(N)=O)NC(=O)[C@H](Cc1ccccc1)N(C)C(=O)CNC(=O)[C@@H](C)NC(=O)[C@@H](N)Cc1ccc(O)cc1)C(=O)N[C@@H](Cc1c[nH]c2ccccc12)C(=O)NCc1cc(C(F)(F)F)cc(C(F)(F)F)c1 [AKG-SK-145] (H-Y[dA]G[NMeF]QGPLW-{NH(3,5-(CF3)2-benzyl)}) | −8.43 ± 0.08 | 1/3 | 14.5 | 6 | 7.5 nM | 1/16 | 120 nM and 125 nM |  |  |  |  |  | 2 |  |  | 
8 | CC(C)C[C@H](NC(=O)[C@@H]1CCCN1C(=O)CNC(=O)[C@H](CO)NC(=O)[C@H](Cc1ccccc1)N(C)C(=O)CNC(=O)[C@@H](C)NC(=O)[C@@H](N)Cc1ccc(O)cc1)C(=O)N[C@@H](Cc1c[nH]c2ccccc12)C(=O)NCc1cc(C(F)(F)F)cc(C(F)(F)F)c1 [AKG-CRA-136] (H-Y[dA]G[NMeF]SGPLW-{NH(3,5-(CF3)2-benzyl)}) | −8.07 ± 0.18 | 1/9 | 85.1 | 38 | 9.23 ± 1.38 nM | 1/17 | 156 ± 2.33 nM | 5/1 |  | 22.6 ± 2.07 nM | 27.6 ± 2.9 | None at 100 nM | 3 | 108 ± 44.8 |  | 
9 | Cc1cc(O)cc(C)c1C[C@H](N)C(=O)N[C@H](C)C(=O)NCC(=O)N(C)[C@@H](Cc1ccc(F)cc1)C(=O)N[C@@H](CO)C(=O)N1CCC[C@H]1C(=O)N[C@@H](CC(C)C)C(=O)N[C@@H](Cc1c[nH]c2ccccc12)C(=O)NCc1cc(C(F)(F)F)cc(C(F)(F)F)c1 [AKG135] (H-[Dmt][dA]G[NMePhe(4-F)]SPLW-{NH(3,5-(CF3)2-benzyl)}; N-terminus assumed) | −8.93 ± 0.09 | 1/1 | 1 | 0.5 | 7.26 ± 0.59 nM | 1/7 | 51.7 ± 16.2 nM | 2/1 | 23 nM | 15.4 ± 5.4 nM | 28.7 ± 11.1 | None at 100 nM | 0.5 | 23.4 ± 4.74 |  | 
10 | CC(C)C[C@H](NC(=O)[C@@H]1CCCN1C(=O)[C@H](Cc1ccccc1)N(C)C(=O)[C@H](Cc1c[nH]c2ccccc12)NC(=O)[C@@H]1CCCN1C(=O)[C@@H](N)Cc1ccc(O)cc1)C(=O)N[C@@H](Cc1c[nH]c2ccccc12)C(=O)NCc1cc(C(F)(F)F)cc(C(F)(F)F)c1 [AKG223, H-Tyr-Pro-Trp-NMePhe-Pro-Leu-Trp-NH-Bn(3′,5′-(CF3)2)] (H-YPW[NMeF]PLW-{NH(3,5-(CF3)2-benzyl)}) |  |  |  |  | 3.59 ± 0.3 nM |  | 10.1 ± 6.3 nM |  |  |  |  |  |  |  |  | 
11 | CC(C)C[C@H](NC(=O)[C@@H]1CCCN1C(=O)[C@H](CCC(N)=O)NC(=O)[C@H](Cc1ccccc1)NC(=O)CNC(=O)[C@@H](C)NC(=O)[C@@H](N)Cc1ccc(O)cc1)C(=O)N[C@@H](Cc1c[nH]c2ccccc12)C(=O)NCc1cc(C(F)(F)F)cc(C(F)(F)F)c1 [AKG105] | −7.06 ± 0.18 |  | 20.4 | 9 | 1 nM |  | 12 nM |  |  |  |  |  |  |  |  | 
12 | CC(C)C[C@H](NC(=O)[C@@H]1CCCN1C(=O)[C@H](CC(N)=O)NC(=O)[C@H](Cc1ccccc1)NC(=O)CNC(=O)[C@@H](C)NC(=O)[C@@H](N)Cc1ccc(O)cc1)C(=O)N[C@@H](Cc1c[nH]c2ccccc12)C(=O)NCc1cc(C(F)(F)F)cc(C(F)(F)F)c1 [AKG104] | −6.93 ± 0.05 | 3/1 | 37.2 | 17 |  |  | 20 nM |  |  |  |  |  |  |  |  | 
13 | CC(C)C[C@H](NC(=O)[C@@H]1CCCN1C(=O)[C@H](Cc1ccccc1)NC(=O)CNC(=O)[C@@H](C)NC(=O)[C@@H](N)Cc1ccc(O)cc1)C(=O)N[C@@H](Cc1c[nH]c2ccccc12)C(=O)NCc1cc(C(F)(F)F)cc(C(F)(F)F)c1 [TY012, reference compound] | −7.7 ± 0.21 |  |  |  |  |  |  |  |  |  |  |  |  |  | 0.61 | 33
14 | Cc1cc(O)cc(C)c1C[C@H](N)C(=O)N[C@H](C)C(=O)NCC(=O)N(C)[C@@H](Cc1ccccc1)C(=O)N[C@@H](CCC(N)=O)C(=O)NCC(=O)N1CCC[C@H]1C(=O)N[C@@H](CC(C)C)C(=O)N[C@@H](Cc1c[nH]c2ccccc12)C(=O)NCc1cc(C(F)(F)F)cc(C(F)(F)F)c1 [AKG-SK-146] (H-[Dmt][dA]G[NMeF]QGPLW-{NH(3,5-(CF3)2-benzyl)}; N-terminus assumed) | −8.94 ± 0.17 | 1/1 | 1.41 | 0.6 | 6.37 ± 1.54 nM | 1/15 | 78.6 ± 9.8 nM |  |  |  |  |  | 0.6 |  |  | 
15 | CC(C)C[C@H](NC(=O)[C@@H]1CCCN1C(=O)[C@H](Cc1ccccc1)NC(=O)[C@H](Cc1c[nH]c2ccccc12)NC(=O)[C@@H]1CCCN1C(=O)[C@@H](N)Cc1ccc(O)cc1)C(=O)N[C@@H](Cc1c[nH]c2ccccc12)C(=O)NCc1cc(C(F)(F)F)cc(C(F)(F)F)c1 [AKG221, H-Tyr-Pro-Trp-Phe-Pro-Leu-Trp-NH-Bn(3′,5′-(CF3)2)] (H-YPWFPLW-{NH(3,5-(CF3)2-benzyl)}) |  |  |  |  | 3.34 ± 0.32 nM |  | 38.5 ± 3.6 nM |  |  |  |  |  |  |  |  | 

— patent publication US11141452B2, “Bifunctional compounds for relief of pain comprising an opioid receptor agonist moiety and a NK1 receptor antagonist moiety and methods for treating pain” (THE ARIZONA BOARD OF REGENTS ON BEHALF OF THE UNIVERSITY OF …, priority 2014, dated 2021)
